Test results: ChEMBL document CHEMBL1201861, “Genomics of Drug Sensitity in Cancer screening data, Wellcome Trust Sanger Institute”
pIC50: −log10 of the molar value. Where “and” joins values, the source holds several entries; their conditions need not be identical. Equal values may be shown once.

Legend:
Test in all cases: cells
DOK = assay type: functional, cell-based, Homo sapiens
Description: SANGER: Inhibition of human DOK cell growth in a cell viability assay.

KE-37 = assay type: functional, cell-based; conditions: Homo sapiens
Description: SANGER: Inhibition of human KE-37 cell growth in a cell viability assay.

SAS = assay type: functional, cell-based, Homo sapiens
Description: SANGER: Inhibition of human SAS cell growth in a cell viability assay.

ASPC1 = assay type: functional, cell-based, Homo sapiens
Description: SANGER: Inhibition of human AsPC-1 cell growth in a cell viability assay.

CAL-51 = assay type: functional, cell-based, Homo sapiens
Description: SANGER: Inhibition of human CAL-51 cell growth in a cell viability assay.

CAL-12T = assay type: functional, cell-based, Homo sapiens
Description: SANGER: Inhibition of human CAL-12T cell growth in a cell viability assay.

MOLT-4 = assay type: functional, cell-based; conditions: Homo sapiens
Description: SANGER: Inhibition of human MOLT-4 cell growth in a cell viability assay.

SK-N-FI = assay type: functional, cell-based, Homo sapiens
Description: SANGER: Inhibition of human SK-N-FI cell growth in a cell viability assay.

KYSE-450 = assay type: functional, cell-based; conditions: Homo sapiens
Description: SANGER: Inhibition of human KYSE-450 cell growth in a cell viability assay.

PSN1 = assay type: functional, cell-based, Homo sapiens
Description: SANGER: Inhibition of human PSN1 cell growth in a cell viability assay.

GOTO = assay type: functional, cell-based, Homo sapiens
Description: SANGER: Inhibition of human GOTO cell growth in a cell viability assay.

HMV-2 cell line = assay type: functional, cell-based, Homo sapiens
Description: SANGER: Inhibition of human HMV-II cell growth in a cell viability assay.

KP-N-YN = assay type: functional, cell-based; conditions: Homo sapiens
Description: SANGER: Inhibition of human KP-N-YN cell growth in a cell viability assay.

MEG-01 = assay type: functional, cell-based; conditions: Homo sapiens
Description: SANGER: Inhibition of human MEG-01 cell growth in a cell viability assay.

OVCAR-3 = assay type: functional, cell-based, Homo sapiens
Description: SANGER: Inhibition of human OVCAR-3 cell growth in a cell viability assay.

NCI-H2170 = assay type: functional, cell-based, Homo sapiens
Description: SANGER: Inhibition of human NCI-H2170 cell growth in a cell viability assay.

HCC1395 = assay type: functional, cell-based, Homo sapiens
Description: SANGER: Inhibition of human HCC1395 cell growth in a cell viability assay.

OS-RC-2 = assay type: functional, cell-based, Homo sapiens
Description: SANGER: Inhibition of human OS-RC-2 cell growth in a cell viability assay.

IA-LM = assay type: functional, cell-based, Homo sapiens
Description: SANGER: Inhibition of human IA-LM cell growth in a cell viability assay.

VA-ES-BJ = assay type: functional, cell-based, Homo sapiens
Description: SANGER: Inhibition of human VA-ES-BJ cell growth in a cell viability assay.

RMG-I = assay type: functional, cell-based, Homo sapiens
Description: SANGER: Inhibition of human RMG-I cell growth in a cell viability assay.

HT = assay type: functional, cell-based; conditions: Homo sapiens
Description: SANGER: Inhibition of human HT cell growth in a cell viability assay.

PC-14 = assay type: functional, cell-based, Homo sapiens
Description: SANGER: Inhibition of human PC-14 cell growth in a cell viability assay.

DEL = assay type: functional, cell-based; conditions: Homo sapiens
Description: SANGER: Inhibition of human DEL cell growth in a cell viability assay.

GMS-10 = assay type: functional, cell-based, Homo sapiens
Description: SANGER: Inhibition of human GMS-10 cell growth in a cell viability assay.

COLO-679 = assay type: functional, cell-based, Homo sapiens
Description: SANGER: Inhibition of human COLO-679 cell growth in a cell viability assay.

CTV-1 = assay type: functional, cell-based; conditions: Homo sapiens
Description: SANGER: Inhibition of human CTV-1 cell growth in a cell viability assay.

NCI-H226 = assay type: functional, cell-based, Homo sapiens
Description: SANGER: Inhibition of human NCI-H226 cell growth in a cell viability assay.

GP5d = assay type: functional, cell-based, Homo sapiens
Description: SANGER: Inhibition of human GP5d cell growth in a cell viability assay.

COR-L23 = assay type: functional, cell-based, Homo sapiens
Description: SANGER: Inhibition of human COR-L23 cell growth in a cell viability assay.

EW-11 = assay type: functional, cell-based, Homo sapiens
Description: SANGER: Inhibition of human EW-11 cell growth in a cell viability assay.

U2OS = assay type: functional, cell-based, Homo sapiens, U-2-OS; conditions: u-2-os
Description: SANGER: Inhibition of human U-2-OS cell growth in a cell viability assay.

NCI-H720 = assay type: functional, cell-based; conditions: Homo sapiens
Description: SANGER: Inhibition of human NCI-H720 cell growth in a cell viability assay.

U-251 = assay type: functional, cell-based, Homo sapiens
Description: SANGER: Inhibition of human U251 cell growth in a cell viability assay.

HGC-27 = assay type: functional, cell-based, Homo sapiens
Description: SANGER: Inhibition of human HGC-27 cell growth in a cell viability assay.

TCC-SUP = assay type: functional, cell-based, Homo sapiens
Description: SANGER: Inhibition of human TCCSUP cell growth in a cell viability assay.

GI-ME-N = assay type: functional, cell-based, Homo sapiens
Description: SANGER: Inhibition of human GI-ME-N cell growth in a cell viability assay.

SK-LMS-1 = assay type: functional, cell-based, Homo sapiens
Description: SANGER: Inhibition of human SK-LMS-1 cell growth in a cell viability assay.

C-33-A = assay type: functional, cell-based, Homo sapiens
Description: SANGER: Inhibition of human C-33-A cell growth in a cell viability assay.

HN = assay type: functional, cell-based, Homo sapiens
Description: SANGER: Inhibition of human HN cell growth in a cell viability assay.

HuO-3N1 = assay type: functional, cell-based, Homo sapiens
Description: SANGER: Inhibition of human HuO-3N1 cell growth in a cell viability assay.

NCI-H810 = assay type: functional, cell-based, Homo sapiens
Description: SANGER: Inhibition of human NCI-H810 cell growth in a cell viability assay.

NEC8 = assay type: functional, cell-based, Homo sapiens
Description: SANGER: Inhibition of human NEC8 cell growth in a cell viability assay.

DU-145 = assay type: functional, cell-based, Homo sapiens
Description: SANGER: Inhibition of human DU-145 cell growth in a cell viability assay.

NB7 = assay type: functional, cell-based; conditions: Homo sapiens
Description: SANGER: Inhibition of human NB7 cell growth in a cell viability assay.

RT-112 = assay type: functional, cell-based, Homo sapiens
Description: SANGER: Inhibition of human RT-112 cell growth in a cell viability assay.

NCI-H2052 = assay type: functional, cell-based, Homo sapiens
Description: SANGER: Inhibition of human NCI-H2052 cell growth in a cell viability assay.

LU-139 = assay type: functional, cell-based; conditions: Homo sapiens
Description: SANGER: Inhibition of human LU-139 cell growth in a cell viability assay.

NCI-H2030 = assay type: functional, cell-based, Homo sapiens
Description: SANGER: Inhibition of human NCI-H2030 cell growth in a cell viability assay.

TE-9 = assay type: functional, cell-based, Homo sapiens
Description: SANGER: Inhibition of human TE-9 cell growth in a cell viability assay.

NCI-H2452 = assay type: functional, cell-based, Homo sapiens
Description: SANGER: Inhibition of human NCI-H2452 cell growth in a cell viability assay.

LoVo = assay type: functional, cell-based; conditions: Homo sapiens
Description: SANGER: Inhibition of human LoVo cell growth in a cell viability assay.

## Cc1cc([C@@H](C)Nc2ccccc2C(=O)O)c2nc(N3CCOCC3)cc(=O)n2c1 [AZD-6482]
DOK; dok
  pIC50: 5.41 and 5.82
KE-37
  pIC50: < 5.29
SAS; sas
  pIC50: < 5.29
ASPC1; aspc1
  pIC50: < 5.29
CAL-51; cal-51
  pIC50: < 5.29
CAL-12T; cal-12t
  pIC50: < 5.29
MOLT-4
  pIC50: < 5.29
SK-N-FI; sk-n-fi
  pIC50: < 5.29
KYSE-450
  pIC50: < 5.29
PSN1; psn1
  pIC50: < 5.29
GOTO; Homo sapiens, GOTO
  pIC50: < 5.29
GOTO; goto
  pIC50: < 5.29
HMV-2 cell line; hmv-2
  pIC50: < 5.29
KP-N-YN
  pIC50: < 5.29
MEG-01
  pIC50: < 5.29
OVCAR-3; ovcar-3
  pIC50: 6.17 and 5.41
NCI-H2170; nci-h2170
  pIC50: < 5.29
HCC1395; Homo sapiens, HCC1395
  pIC50: < 5.29
HCC1395; hcc1395
  pIC50: < 5.29
OS-RC-2; os-rc-2
  pIC50: 6.20 and < 5.29
IA-LM; ia-lm
  pIC50: < 5.29
VA-ES-BJ; Homo sapiens, VA-ES-BJ
  pIC50: < 5.29
VA-ES-BJ; va-es-bj
  pIC50: < 5.29
RMG-I; rmg-i
  pIC50: < 5.29
HT
  pIC50: 5.40
PC-14; pc-14
  pIC50: < 5.29
DEL
  pIC50: < 5.29
GMS-10; Homo sapiens, GMS-10
  pIC50: < 5.29
GMS-10; gms-10
  pIC50: < 5.29
COLO-679; Homo sapiens, COLO-679
  pIC50: < 5.29
COLO-679; colo-679
  pIC50: < 5.29
CTV-1
  pIC50: < 5.29
NCI-H226; Homo sapiens, NCI-H226
  pIC50: < 5.29
NCI-H226; nci-h226
  pIC50: < 5.29
GP5d; Homo sapiens, GP5d
  pIC50: < 5.29
GP5d; gp5d
  pIC50: < 5.29
COR-L23; cor-l23
  pIC50: < 5.29
EW-11; ew-11
  pIC50: < 5.29
U2OS
  pIC50: < 5.29 and 5.34
NCI-H720
  pIC50: < 5.29
U-251; u-251
  pIC50: < 5.29
HGC-27; hgc-27
  pIC50: 5.93 and < 5.29
TCC-SUP; tcc-sup
  pIC50: < 5.29
GI-ME-N; gi-me-n
  pIC50: < 5.29
SK-LMS-1; Homo sapiens, SK-LMS-1
  pIC50: 5.51
SK-LMS-1; sk-lms-1
  pIC50: 5.34
C-33-A; c-33-a
  pIC50: < 5.29
HN; hn
  pIC50: < 5.29
HuO-3N1; Homo sapiens, HuO-3N1
  pIC50: < 5.29
HuO-3N1; huo-3n1
  pIC50: < 5.29
NCI-H810; Homo sapiens, NCI-H810
  pIC50: < 5.29
NCI-H810; nci-h810
  pIC50: < 5.29
NEC8; nec8
  pIC50: < 5.29 and 5.42
DU-145; du-145
  pIC50: < 5.29 and 5.86
NB7
  pIC50: < 5.29
RT-112; Homo sapiens, RT-112
  pIC50: < 5.29
RT-112; rt-112
  pIC50: < 5.29
NCI-H2052; nci-h2052
  pIC50: < 5.29 and 6.04
LU-139
  pIC50: < 5.29
NCI-H2030; Homo sapiens, NCI-H2030
  pIC50: 5.54
NCI-H2030; nci-h2030
  pIC50: 5.57
TE-9; te-9
  pIC50: < 5.29
NCI-H2452; nci-h2452
  pIC50: < 5.29

## COC(=O)CNC(=O)C(=O)OC
DOK; Homo sapiens, DOK
  pIC50: < 2.40
KE-37
  pIC50: 4.36
SAS; Homo sapiens, SAS
  pIC50: 3.63
ASPC1; Homo sapiens, ASPC1
  pIC50: 2.41
CAL-51; Homo sapiens, CAL-51
  pIC50: 3.62
CAL-12T; Homo sapiens, CAL-12T
  pIC50: 4.58
MOLT-4
  pIC50: 3.14
SK-N-FI; Homo sapiens, SK-N-FI
  pIC50: < 2.40
KYSE-450
  pIC50: 2.61
PSN1; Homo sapiens, PSN1
  pIC50: < 2.40
GOTO; Homo sapiens, GOTO
  pIC50: 2.94
HMV-2 cell line; Homo sapiens, HMV-2
  pIC50: < 2.40
MEG-01
  pIC50: 3.31
OVCAR-3; Homo sapiens, OVCAR-3
  pIC50: 3.69
NCI-H2170; Homo sapiens, NCI-H2170
  pIC50: < 2.40
HCC1395; Homo sapiens, HCC1395
  pIC50: 2.81
LoVo
  pIC50: 3.02
OS-RC-2; Homo sapiens, OS-RC-2
  pIC50: 2.76
IA-LM; Homo sapiens, IA-LM
  pIC50: 3.82
VA-ES-BJ; Homo sapiens, VA-ES-BJ
  pIC50: 3.04
RMG-I; Homo sapiens, RMG-I
  pIC50: 3.09
HT
  pIC50: 3.88
PC-14; Homo sapiens, PC-14
  pIC50: < 2.40
DEL
  pIC50: 4.14
GMS-10; Homo sapiens, GMS-10
  pIC50: 2.66
COLO-679; Homo sapiens, COLO-679
  pIC50: 3.80
CTV-1
  pIC50: 3.33
NCI-H226; Homo sapiens, NCI-H226
  pIC50: < 2.40
GP5d; Homo sapiens, GP5d
  pIC50: 3.20
COR-L23; Homo sapiens, COR-L23
  pIC50: 2.73
EW-11; Homo sapiens, EW-11
  pIC50: 2.98
NCI-H720
  pIC50: < 2.40
U-251; Homo sapiens, U-251
  pIC50: 3.67
HGC-27; Homo sapiens, HGC-27
  pIC50: 3.73
TCC-SUP; Homo sapiens, TCC-SUP
  pIC50: 3.36
GI-ME-N; Homo sapiens, GI-ME-N
  pIC50: 2.67
SK-LMS-1; Homo sapiens, SK-LMS-1
  pIC50: 3.92
C-33-A; Homo sapiens, C-33-A
  pIC50: < 2.40
HN; Homo sapiens, HN
  pIC50: 2.99
HuO-3N1; Homo sapiens, HuO-3N1
  pIC50: 3.15
NCI-H810; Homo sapiens, NCI-H810
  pIC50: 3.20
NEC8; Homo sapiens, NEC8
  pIC50: 3.39
DU-145; Homo sapiens, DU-145
  pIC50: 3.08
RT-112; Homo sapiens, RT-112
  pIC50: 3.75
NCI-H2052; Homo sapiens, NCI-H2052
  pIC50: 2.54
LU-139
  pIC50: 3.74
NCI-H2030; Homo sapiens, NCI-H2030
  pIC50: 3.98
TE-9; Homo sapiens, TE-9
  pIC50: 3.02
NCI-H2452; Homo sapiens, NCI-H2452
  pIC50: 3.01

## C=C1C(=O)O[C@@H]2C3O[C@]3(C)CC/C=C(\C)CC[C@@H]12 (stereo partly drawn)
KE-37
  pIC50: < 5.30
MOLT-4
  pIC50: < 5.30
SK-N-FI; Homo sapiens, SK-N-FI
  pIC50: < 5.30
PSN1; Homo sapiens, PSN1
  pIC50: < 5.30
GOTO; Homo sapiens, GOTO
  pIC50: < 5.30
KP-N-YN
  pIC50: < 5.30
MEG-01
  pIC50: < 5.30
OS-RC-2; Homo sapiens, OS-RC-2
  pIC50: < 5.30
VA-ES-BJ; Homo sapiens, VA-ES-BJ
  pIC50: < 5.30
HT
  pIC50: < 5.30
DEL
  pIC50: < 5.30
CTV-1
  pIC50: < 5.30
NCI-H226; Homo sapiens, NCI-H226
  pIC50: < 5.30
EW-11; Homo sapiens, EW-11
  pIC50: < 5.30
NCI-H720
  pIC50: < 5.30
GI-ME-N; Homo sapiens, GI-ME-N
  pIC50: < 5.30
SK-LMS-1; Homo sapiens, SK-LMS-1
  pIC50: < 5.30
NEC8; Homo sapiens, NEC8
  pIC50: < 5.30
NB7
  pIC50: < 5.30
LU-139
  pIC50: < 5.30
TE-9; Homo sapiens, TE-9
  pIC50: < 5.30
